# Laboratory results taken from US20130281504A1, “Reduction of Microglia-Mediated Neurotoxicity by KCa3.1 Inhibition” (THE REGENTS OF THE UNIVERSITY OF CALIFORNIA, priority 2010, published 2013).
# Read-outs that look alike come from different tables or passages of the source.
# Columns and labels:
# [1] = system: p38MAPK; assay: p38MAPK phosphorylation in microglia (Western blot); type: cell-based, mouse; conditions: doxycycline 20 μM, TRAM-34 1 μM, FIG. 2D
# Protocol: Primary microglia cultures derived from newborn C57BL/6J mice were prepared from mixed glia cultures with the “shaking off” method described by Maezawa, I., et al.; (2006) FASEB J 20, 797-799. […] To obtain conditioned medium (CM) for treating neurons, microglia were first cultured in 24-well culture plates at a density of 1.3×10^5 cells/cm^2 for 24 hrs in DMEM with 10% fetal bovine serum (DMEM10). Cultures were washed extensively and changed to the Neurobasal medium with B27 supplement (NB/B27, Invitrogen) without serum and cultured for another 24 hrs. The NB/B27-based microglia CMs were collected, briefly centrifuged, and used immediately or frozen for future uses.
# To obtain lysates, cells or tissues were washed with ice-cold PBS and incubated with a buffer containing 50 mmol/L Tris-HCl (pH 7.4), 150 mmol/L NaCl, 2% SDS, proteinase inhibitor cocktail (Sigma), and phosphatase inhibitor cocktail (Sigma). Lysates were briefly sonncated and cleared by centrifugation at 50,000 rpm for 10 min. Equivalent amounts of protein were analyzed by Tris/HCL gel electrophoresis. Proteins were transferred to polyvinylidene difluoride membranes and probed with antibodies. Visualization was performed using enhanced chemiluminescence (ECL, Amersham Pharmacia, Piscataway, N.J.).
# The following primary antibodies (dilutions) were used: anti-p38MAPK (1:1000, Cell Signaling Technology, Boston, Mass.), anti-phospho-p38MAPK (1:1000, Cell Signaling Technology), anti-Synaptophysin (1:1000, Abcam), anti-PSD95 (1:1000, cell signaling), anti-GRIP 1 (1:1000, UpState), anti-MAP2 (1:1000, Chemicon), anti-acetylated α-tubulin (1:2000, Zymed), and anti-β-actin (1:3000, Sigma). Secondary antibodies were HRP-conjugated anti-rabbit, anti-goat, or anti-mouse antibody (1:3000 Amersham).
# [2] = system: NFκB; assay: NFκB assay in microglia; type: cell-based, mouse; conditions: 2 hrs; 20 μM doxycycline, 1 μM TRAM-34; FIG. 2E
# Protocol: The detection of cells with active NFκB was performed according to the method described by Franciosi, S., et al.; (2006) J Neurosci 26, 11652-11664. Briefly, microglia were plated as described above and treated with activators for 2 hrs. Cells were fixed and stained with anti-NF-κBp65 antibody (1:250, Chemicon) and with the nuclear dye DAPI.
# [3] = system: microglia; assay: Assay for nitric oxide (nitrite) in microglia conditioned medium; type: cell-based, mouse; conditions: 24 hr
# [4] = system: hippocampal neurons; assay: Indirect neurotoxicity of conditioned medium from AβO-treated microglia on hippocampal neurons; type: cell-based, mouse; conditions: 25% CM, 24 hrs
# Protocol: Hippocampal neuronal cultures were prepared from newborn wild type C57BL/6J mice according to the method of Xiang et al (26). Neurons were cultured in NB/B27 at a density of 2.5×10^5 cells/well in 12-well plates or 8×10^5 cells/well in 6-well plates for at least 14 days before they were treated with microglia CM.
# Hippocampal neurons were prepared as described above and were plated onto 96-well plate at a density of 6×10^4 cells/well and cultured for 14 days. CM from microglia cultures was added onto neurons with indicated dilutions, and cultures were incubated for 24 hrs.
# For immunofluorescent staining of neurons, cultures were fixed in 4% paraformaldehyde and stained with anti-PSD95 (1:200, Cell Signaling), anti-MAP2 (1:500, Chemicon) and anti-acetylated α-tubulin (1:250, Zymed). […] Immunostained images were observed under a Nikon Eclipse E600 microscope and photographed by a digital camera (SPOT RTke, SPOT Diagnostics, Sterling Heights, Mich.).
# For quantification of the PSD95-immunoreactive puncta along the dendrites, photomicrographs of PSD95 immunostained cultures were randomly taken from each culture condition. The images were transformed to 8 bit gray scale and analyzed with the Image J program. The number of puncta in each photomicrograph was counted and normalized by dendritic length. The photography and analysis were conducted in an investigator-blinded manner
# [5] = Pharmacokinetics and brain concentrations in rats (HPLC/MS); conditions: rat
# Protocol: At various time points following the injection approximately 100-200 μl of blood were collected from a tail nick into EDTA blood sample collection tubes. […] Blood samples were taken by cardiac puncture under deep isoflurane anesthesia. The right atrium was then cut open and 20 mL of saline slowly injected into the left ventricle to flush the blood out of the circulation. The rats were then sacrificed and brains removed. Plasma was separated by centrifugation and samples stored at −80° C. pending analysis. Plasma and homogenized brain samples were purified using C18 solid phase extraction (SPE) cartridges. […] LC/MS analysis was performed with a Hewlett-Packard 1100 series HPLC stack equipped with a Merck KGaA RT 250-4 LiChrosorb RP-18 column interfaced to a Finnigan LCQ Classic MS. The mobile phase consisted of acetonitrile and water, both containing 0.2% formic acid.
# [6] = mice, previously determined; cited from earlier work
# [7] = system: experimental autoimmune encephalomyelitis (EAE); conditions: mice; cited from earlier work
structure (smiles),measurement,setting,value
"Clc1ccccc1C(c1ccccc1)(c1ccccc1)n1cccn1 [TRAM-34, 1-[(2-chlorophenyl)diphenylmethyl]-1H-pyrazole]",LPS-induced p38MAPK phosphorylation,"[1]; LPS 100 ng/ml, 30 minutes",no significant difference
same,AβO-induced p38MAPK phosphorylation,[1]; microglia treated 30 minutes,no significant difference
same,AβO-induced NFκB activation (p65-immunoreactive cells),[2],prevented
same,LPS-induced NFκB activation,[2],not significantly
same,"microglia NO production, compound alone",[3]; without AβO,did not affect NO production
same,AβO-induced increase of microglia NO production,"[3]; 20 μM doxycycline, 1 μM TRAM-34, FIG. 2F",prevented
same,dendritic morphology of neurons after CM from AβO-treated microglia co-incubated with inhibitor,[4],did not alter the dendritic morphology
same,"levels of Ac-TN, MAP2, PSD95, and GRIP1 after CM from AβO-treated microglia co-incubated with inhibitor",[4]; Western blot,did not cause significant decreases
same,AβO-CM-induced reduction of PSD95-immunoreactive puncta,"[4]; microglia co-treated with 20 μM doxycycline or 1 μM TRAM-34, FIG. 6D",prevented
same,Kp,"[5]; Wistar, in vivo",1.2
same,half-life,"[5]; male, Wistar, in vivo, iv, 10 mg/kg, half-life, rat plasma, calculated from elimination part of i.v. plot",~2 h
same,"total plasma and brain levels, peak","[5]; i.p. 10 mg/kg, between 30 min and 1 hour",around 2.5
same,plasma peaks,[5]; s.c. 120 mg/kg,2.5 ± 1 µM
same,half-life,[6],1 h
same,experimental autoimmune encephalomyelitis (EAE),[7],treats
